In ChEMBL document CHEMBL1142505, “Synthesis and antitubercular activity of ferrocenyl diaminoalcohols and diamines” (2008):
In brackets after ≈: the same amount, converted by molar mass.

Test system: Mycobacterium tuberculosis
Test: Antitubercular activity against Mycobacterium tuberculosis H37Rv after 2 days by mycobacteria growth indicator tube system
Type: functional
Conditions: 48 h

Compound | MIC [µg/mL]
c1ccc(CNCCNCc2ccccc2)cc1 | > 64
CC(CNCc1ccccc1)NCc1ccccc1 (stereo not drawn) | > 64
CC[C@@H](CO)NCCN[C@@H](CC)CO [ETHAMBUTOL] | 2 (≈ 9.79 µM)
